Laboratory results: ChEMBL document CHEMBL1687752, “Impact of antifungal prophylaxis on colonization and azole susceptibility of Candida species” (2009)

Experiments:
Type in all cases: functional
Nakaseomyces glabratus [1] = experiment: Antifungal activity against Candida glabrata isolated from HSCT recipient 975 with acute or chronic GVHD mouth after 112 days prophylaxis by broth microdilution method
Candida albicans [2] = experiment: Antifungal activity against Candida albicans isolated from HSCT recipient 928 with acute or chronic GVHD mouth receiving antifungal drug after 112 days prophylaxis by broth microdilution method
Nakaseomyces glabratus [3] = experiment: Antifungal activity against 176 days cultured Candida glabrata isolated from HSCT recipient with acute or chronic GVHD mouth receiving antifungal therapy for 168 days after 113 days of prophylaxis by broth microdilution method
Nakaseomyces glabratus [4] = experiment: Antifungal activity against 10 days cultured Candida glabrata isolated from neutropenic subject with AML or MDS stool receiving antifungal therapy for 37 days after 9 days of prophylaxis by broth microdilution method
Nakaseomyces glabratus [5] = experiment: Antifungal activity against Candida glabrata isolated from neutropenic subject 1102 with AML or MDS stool after 26 days prophylaxis by broth microdilution method; conditions: 624 h
Candida albicans [6] = experiment: Antifungal activity against Candida albicans isolated from HSCT recipient 031 with acute or chronic GVHD mouth receiving antifungal drug after 109 days prophylaxis by broth microdilution method
Nakaseomyces glabratus [7] = experiment: Antifungal activity against Candida glabrata isolated from neutropenic subject 1318 with AML or MDS stool after 36 days prophylaxis by broth microdilution method
Nakaseomyces glabratus [8] = experiment: Antifungal activity against Candida glabrata isolated from neutropenic subjects with AML or MDS receiving posaconazole by broth microdilution method
Candida albicans [9] = experiment: Antifungal activity against Candida albicans isolated from neutropenic subjects with AML or MDS prior to initiation of posaconazole therapy assessed as maximum MIC by broth microdilution method
Pichia kudriavzevii [10] = experiment: Antifungal activity against Candida krusei isolated from neutropenic subjects with AML or MDS receiving fluconazole assessed as maximum MIC by broth microdilution method
Nakaseomyces glabratus [11] = experiment: Antifungal activity against 29 days cultured Candida glabrata isolated from neutropenic subject with AML or MDS pharynx after 48 days of prophylaxis by broth microdilution method
Candida albicans [12] = experiment: Antifungal activity against Candida albicans isolated from neutropenic subjects with AML or MDS receiving fluconazole by broth microdilution method
Pichia kudriavzevii [13] = experiment: Antifungal activity against 6 days cultured Candida krusei isolated from neutropenic subject with AML or MDS pharynx receiving antifungal therapy for 19 days after 6 days of prophylaxis by broth microdilution method
Candida albicans [14] = experiment: Antifungal activity against Candida albicans isolated from HSCT recipients with acute or chronic GVHD receiving fluconazole by broth microdilution method
Candida albicans [15] = experiment: Antifungal activity against Candida albicans isolated from HSCT recipients with acute or chronic GVHD receiving fluconazole assessed as maximum MIC by broth microdilution method
Candida albicans [16] = experiment: Antifungal activity against Candida albicans isolated from HSCT recipient 042 with acute or chronic GVHD mouth after 112 days prophylaxis by broth microdilution method
Nakaseomyces glabratus [17] = experiment: Antifungal activity against Candida glabrata isolated from HSCT recipient 474 with acute or chronic GVHD mouth receiving antifungal drug after 124 days prophylaxis by broth microdilution method
Candida albicans [18] = experiment: Antifungal activity against Candida albicans isolated from HSCT recipient 042 with acute or chronic GVHD mouth receiving antifungal drug after 112 days prophylaxis by broth microdilution method
Nakaseomyces glabratus [19] = experiment: Antifungal activity against 23 days cultured Candida glabrata isolated from neutropenic subject with AML or MDS stool receiving antifungal therapy for 25 days after 3 days of prophylaxis by broth microdilution method
Candida albicans [20] = experiment: Antifungal activity against 1 day cultured Candida albicans isolated from HSCT recipient with acute or chronic GVHD mouth after 2 days of prophylaxis by broth microdilution method
Nakaseomyces glabratus [21] = experiment: Antifungal activity against Candida glabrata isolated from HSCT recipient 270 with acute or chronic GVHD mouth after 108 days prophylaxis by broth microdilution method
Candida albicans [22] = experiment: Antifungal activity against Candida albicans isolated from HSCT recipient 462 with acute or chronic GVHD mouth after 112 days prophylaxis by broth microdilution method
Nakaseomyces glabratus [23] = experiment: Antifungal activity against Candida glabrata isolated from neutropenic subjects with AML or MDS prior to initiation of posaconazole therapy by broth microdilution method
Candida albicans [24] = experiment: Antifungal activity against Candida albicans isolated from HSCT recipient 301 with acute or chronic GVHD mouth after 114 days prophylaxis by broth microdilution method
Nakaseomyces glabratus [25] = experiment: Antifungal activity against 3 days cultured Candida glabrata isolated from neutropenic subject with AML or MDS stool receiving antifungal therapy for 25 days after 3 days of prophylaxis by broth microdilution method
Nakaseomyces glabratus [26] = experiment: Antifungal activity against Candida glabrata isolated from HSCT recipients with acute or chronic GVHD prior to initiation of fluconazole therapy by broth microdilution method
Nakaseomyces glabratus [27] = experiment: Antifungal activity against 111 days cultured Candida glabrata isolated from HSCT recipient with acute or chronic GVHD mouth receiving antifungal therapy for 143 days after 116 days of prophylaxis by broth microdilution method
Pichia kudriavzevii [28] = experiment: Antifungal activity against 16 days cultured Candida krusei isolated from neutropenic subject with AML or MDS stool receiving antifungal therapy for 19 days after 6 days of prophylaxis by broth microdilution method
Pichia kudriavzevii [29] = experiment: Antifungal activity against 19 days cultured Candida krusei isolated from invasive fungal infected subject blood receiving antifungal therapy for 19 days after 6 days of prophylaxis by broth microdilution method
Pichia kudriavzevii [30] = experiment: Antifungal activity against Candida krusei isolated from HSCT recipients with acute or chronic GVHD prior to initiation of fluconazole therapy assessed as maximum MIC by broth microdilution method
Nakaseomyces glabratus [31] = experiment: Antifungal activity against Candida glabrata isolated from neutropenic subject 1187 with AML or MDS stool receiving antifungal drug after 22 days prophylaxis by broth microdilution method; conditions: 528 h
Nakaseomyces glabratus [32] = experiment: Antifungal activity against Candida glabrata isolated from neutropenic subject 1331 with AML or MDS pharynx receiving antifungal drug after 21 days prophylaxis by broth microdilution method; conditions: 504 h
Candida albicans [33] = experiment: Antifungal activity against Candida albicans isolated from HSCT recipients with acute or chronic GVHD prior to initiation of fluconazole therapy assessed as maximum MIC by broth microdilution method
Nakaseomyces glabratus [34] = experiment: Antifungal activity against Candida glabrata isolated from HSCT recipient 474 with acute or chronic GVHD mouth after 124 days prophylaxis by broth microdilution method
Nakaseomyces glabratus [35] = experiment: Antifungal activity against Candida glabrata isolated from neutropenic subject 1497 with AML or MDS pharynx after 61 days prophylaxis by broth microdilution method
Nakaseomyces glabratus [36] = experiment: Antifungal activity against 29 days cultured Candida glabrata isolated from neutropenic subject with AML or MDS stool after 48 days of prophylaxis by broth microdilution method
Pichia kudriavzevii [37] = experiment: Antifungal activity against Candida krusei isolated from HSCT recipients with acute or chronic GVHD receiving fluconazole assessed as maximum MIC by broth microdilution method
Candida tropicalis = experiment: Antifungal activity against 9 days cultured Candida tropicalis isolated from neutropenic subject with AML or MDS stool receiving antifungal therapy for 45 days after 24 days of prophylaxis by broth microdilution method
Nakaseomyces glabratus [38] = experiment: Antifungal activity against Candida glabrata isolated from HSCT recipient 270 with acute or chronic GVHD mouth receiving antifungal drug after 108 days prophylaxis by broth microdilution method
Candida albicans [39] = experiment: Antifungal activity against Candida albicans isolated from HSCT recipients with acute or chronic GVHD receiving posaconazole by broth microdilution method

CCC(C)n1ncn(-c2ccc(N3CCN(c4ccc(OCC5COC(Cn6cncn6)(c6ccc(Cl)cc6Cl)O5)cc4)CC3)cc2)c1=O (stereo not drawn) [ITRACONAZOLE]
8 µg/mL: MIC90 (Nakaseomyces glabratus [8]) | MIC (Nakaseomyces glabratus [11]) | MIC (Nakaseomyces glabratus [17]) | MIC90 (Nakaseomyces glabratus [23]) | MIC (Nakaseomyces glabratus [32])
0.015 µg/mL: MIC50 (Candida albicans [12]) | MIC90 (Candida albicans [12])
0.125 µg/mL: MIC (Nakaseomyces glabratus [19]) | MIC (Nakaseomyces glabratus [21])
2 µg/mL: MIC (Nakaseomyces glabratus [3]) | MIC (Nakaseomyces glabratus [4]) | MIC50 (Nakaseomyces glabratus [26])
0.06 µg/mL: MIC (Candida albicans [6]) | MIC (Candida albicans [18]) | MIC (Candida albicans [22]) | MIC (Candida albicans [33]) | MIC (Nakaseomyces glabratus [35])
0.03 µg/mL: MIC (Candida albicans [9]) | MIC50 (Candida albicans [14]) | MIC (Candida tropicalis) | MIC50 (Candida albicans [39])
> 8 µg/mL: MIC (Candida albicans [2]) | MIC (Nakaseomyces glabratus [27])
16 µg/mL: MIC90 (Candida albicans [14]) | MIC (Candida albicans [15]) | MIC90 (Nakaseomyces glabratus [26]) | MIC (Pichia kudriavzevii [37])
4 µg/mL: MIC (Nakaseomyces glabratus [31]) | MIC (Nakaseomyces glabratus [34])
0.5 µg/mL: MIC50 (Nakaseomyces glabratus [8]) | MIC (Pichia kudriavzevii [13])
1 µg/mL: MIC (Nakaseomyces glabratus [5]) | MIC (Pichia kudriavzevii [10]) | MIC (Nakaseomyces glabratus [25]) | MIC (Pichia kudriavzevii [30]) | MIC (Nakaseomyces glabratus [36]) | MIC (Nakaseomyces glabratus [38])
0.25 µg/mL: MIC (Nakaseomyces glabratus [1]) | MIC (Nakaseomyces glabratus [7]) | MIC50 (Nakaseomyces glabratus [23]) | MIC (Pichia kudriavzevii [28]) | MIC (Pichia kudriavzevii [29]) | MIC90 (Candida albicans [39])
< 0.015 µg/mL: MIC (Candida albicans [16]) | MIC (Candida albicans [24])
< 0.03 µg/mL: MIC (Candida albicans [20])

OC(Cn1cncn1)(Cn1cncn1)c1ccc(F)cc1F [FLUCONAZOLE]
1 µg/mL: MIC50 (Candida albicans [14]) | MIC (Candida albicans [18])
64 µg/mL: MIC90 (Nakaseomyces glabratus [8]) | MIC (Pichia kudriavzevii [10]) | MIC90 (Candida albicans [14]) | MIC (Candida albicans [15]) | MIC (Nakaseomyces glabratus [17]) | MIC90 (Nakaseomyces glabratus [26]) | MIC (Nakaseomyces glabratus [27]) | MIC (Pichia kudriavzevii [28]) | MIC (Pichia kudriavzevii [30]) | MIC (Pichia kudriavzevii [37])
128 µg/mL: MIC (Candida albicans [2]) | MIC (Candida albicans [6])
2 µg/mL: MIC (Candida albicans [9]) | MIC (Nakaseomyces glabratus [35])
32 µg/mL: MIC (Pichia kudriavzevii [13]) | MIC (Pichia kudriavzevii [29]) | MIC (Nakaseomyces glabratus [31])
16 µg/mL: MIC90 (Nakaseomyces glabratus [23]) | MIC50 (Nakaseomyces glabratus [26]) | MIC (Candida albicans [33]) | MIC (Nakaseomyces glabratus [34]) | MIC90 (Candida albicans [39])
0.25 µg/mL: MIC50 (Candida albicans [12]) | MIC50 (Candida albicans [39])
8 µg/mL: MIC (Nakaseomyces glabratus [4]) | MIC50 (Nakaseomyces glabratus [8]) | MIC (Nakaseomyces glabratus [21]) | MIC (Candida albicans [22]) | MIC (Nakaseomyces glabratus [25]) | MIC (Nakaseomyces glabratus [36]) | MIC (Nakaseomyces glabratus [38])
> 64 µg/mL: MIC (Nakaseomyces glabratus [3]) | MIC (Nakaseomyces glabratus [11]) | MIC (Nakaseomyces glabratus [32])
0.5 µg/mL: MIC90 (Candida albicans [12]) | MIC (Candida tropicalis)
< 0.125 µg/mL: MIC (Candida albicans [16]) | MIC (Candida albicans [24])
4 µg/mL: MIC (Nakaseomyces glabratus [1]) | MIC (Nakaseomyces glabratus [5]) | MIC (Nakaseomyces glabratus [7]) | MIC (Nakaseomyces glabratus [19]) | MIC50 (Nakaseomyces glabratus [23])
< 0.12 µg/mL: MIC (Candida albicans [20])

CC[C@@H]([C@H](C)O)n1ncn(-c2ccc(N3CCN(c4ccc(OC[C@@H]5CO[C@@](Cn6cncn6)(c6ccc(F)cc6F)C5)cc4)CC3)cc2)c1=O [POSACONAZOLE]
0.5 µg/mL: MIC (Nakaseomyces glabratus [7]) | MIC50 (Nakaseomyces glabratus [8]) | MIC (Nakaseomyces glabratus [25]) | MIC (Pichia kudriavzevii [30])
2 µg/mL: MIC90 (Nakaseomyces glabratus [23])
< 0.03 µg/mL: MIC (Candida albicans [20])
8 µg/mL: MIC (Nakaseomyces glabratus [11]) | MIC90 (Nakaseomyces glabratus [26]) | MIC (Nakaseomyces glabratus [32])
0.12 µg/mL: MIC90 (Candida albicans [39])
0.03 µg/mL: MIC50 (Candida albicans [14]) | MIC (Nakaseomyces glabratus [35]) | MIC50 (Candida albicans [39])
> 8 µg/mL: MIC (Candida albicans [2])
0.015 µg/mL: MIC50 (Candida albicans [12]) | MIC90 (Candida albicans [12])
< 0.015 µg/mL: MIC (Candida albicans [6]) | MIC (Candida albicans [16]) | MIC (Candida albicans [18]) | MIC (Candida albicans [22]) | MIC (Candida albicans [24]) | MIC (Candida tropicalis)
4 µg/mL: MIC (Nakaseomyces glabratus [3]) | MIC90 (Nakaseomyces glabratus [8]) | MIC (Nakaseomyces glabratus [17]) | MIC (Nakaseomyces glabratus [27]) | MIC (Nakaseomyces glabratus [31])
16 µg/mL: MIC90 (Candida albicans [14]) | MIC (Candida albicans [15])
0.125 µg/mL: MIC (Nakaseomyces glabratus [19])
1 µg/mL: MIC (Nakaseomyces glabratus [4]) | MIC50 (Nakaseomyces glabratus [26]) | MIC (Nakaseomyces glabratus [36]) | MIC (Pichia kudriavzevii [37]) | MIC (Nakaseomyces glabratus [38])
0.25 µg/mL: MIC (Nakaseomyces glabratus [1]) | MIC (Nakaseomyces glabratus [5]) | MIC (Pichia kudriavzevii [10]) | MIC50 (Nakaseomyces glabratus [23]) | MIC (Pichia kudriavzevii [28]) | MIC (Nakaseomyces glabratus [34])
0.06 µg/mL: MIC (Candida albicans [9]) | MIC (Pichia kudriavzevii [13]) | MIC (Nakaseomyces glabratus [21]) | MIC (Pichia kudriavzevii [29]) | MIC (Candida albicans [33])
